# Measured values taken from ChEMBL document CHEMBL1129992, “Arylamide inhibitors of HIV-1 integrase” (J Med Chem, 1997).
# Assays:
# [1] = biological target: T1, Human immunodeficiency virus type 1 integrase (Human immunodeficiency virus 1, UniProt Q7ZJM1); assay: Inhibition of HIV-1 integrase-mediated strand transfer
# [2] = biological target: T1, Human immunodeficiency virus type 1 integrase; assay: Inhibition of HIV-1 integrase-mediated 3'-processing
# T1 sequence (Q7ZJM1 whole entry): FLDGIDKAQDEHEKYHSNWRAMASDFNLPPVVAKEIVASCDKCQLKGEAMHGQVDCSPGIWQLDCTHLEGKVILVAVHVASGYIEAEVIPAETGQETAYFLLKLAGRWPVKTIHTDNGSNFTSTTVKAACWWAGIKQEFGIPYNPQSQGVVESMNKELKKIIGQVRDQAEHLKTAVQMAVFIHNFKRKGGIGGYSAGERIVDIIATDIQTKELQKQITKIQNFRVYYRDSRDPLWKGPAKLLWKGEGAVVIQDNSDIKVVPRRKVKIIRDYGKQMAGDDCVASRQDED
SMILES,IC50 [1],IC50 [2]
COC(=O)c1ccc2c(O)c(O)ccc2c1,52.7 µM,58.4 µM
COc1ccc2cc(C(=O)NCCCNC(=O)c3ccc4c(OC)c(OC)ccc4c3)ccc2c1OC,> 200 µM,> 200 µM
O=C(O)c1ccc2cc(O)c(O)cc2c1,4.7 µM,5.4 µM
O=C(NCCCNC(=O)c1ccc2cc(O)c(O)cc2c1)c1ccc2cc(O)c(O)cc2c1,0.81 µM,0.98 µM
O=C(NCCCNC(=O)c1ccc2cc(O)ccc2c1)c1ccc2cc(O)ccc2c1,> 200 µM,> 200 µM
O=C(CCc1cc(O)cc(O)c1)NCCc1cc(O)cc(O)c1,–,> 350 µM
O=C(CCc1ccc(O)c(O)c1)NCCc1cc(O)cc(O)c1,–,> 350 µM
O=C(CCc1cccc(O)c1)NCCc1cccc(O)c1,–,> 350 µM
O=C(CCc1ccc(O)cc1)NCCc1ccc(O)cc1,–,> 350 µM
O=C(NCCCNC(=O)c1ccc2c(O)c(O)ccc2c1)c1ccc2c(O)c(O)ccc2c1,0.11 µM,0.23 µM
O=C(CCc1cccc(O)c1)NCCCNC(=O)CCc1cccc(O)c1,> 200 µM,> 200 µM
O=C(CCc1cc(O)cc(O)c1)NCCc1ccc(O)c(O)c1,–,> 350 µM

# Further lines, results first:
IC50 [1],IC50 [2],SMILES
> 200 µM,> 200 µM,COC(=O)c1ccc2cc(O)c(O)cc2c1
–,> 350 µM,O=C(CCc1cccc(O)c1)NCCc1ccc(O)cc1
–,> 350 µM,O=C(CCc1ccc(O)cc1)NCCc1cccc(O)c1
> 200 µM,> 200 µM,O=C(CCc1ccc(O)cc1)NCCCNC(=O)CCc1ccc(O)cc1
–,33 µM,O=C(CCc1ccc(O)c(O)c1)NCCc1ccc(O)c(O)c1
> 200 µM,> 200 µM,COC(=O)c1ccc2cc(O)ccc2c1
> 200 µM,> 200 µM,COc1ccc2cc(C(=O)NCCCNC(=O)c3ccc4cc(OC)ccc4c3)ccc2c1
172 µM,172 µM,O=C(O)c1ccc2cc(O)ccc2c1
62.4 µM,53.3 µM,O=C(O)c1ccc2c(O)c(O)ccc2c1
> 200 µM,> 200 µM,O=C(CCc1cc(O)cc(O)c1)NCCCNC(=O)CCc1cc(O)cc(O)c1
> 200 µM,> 200 µM,COc1cc2ccc(C(=O)NCCCNC(=O)c3ccc4cc(OC)c(OC)cc4c3)cc2cc1OC
